Data taken from patent US11414429B2, “Compound or pharmaceutically acceptable salt thereof” (RIKEN, priority 2016, dated 2022).

What was measured:
tankyrase 1 (TNKS 1) = biological target: T1, tankyrase 1 (TNKS 1) (Homo sapiens, UniProt O95271); assay: Tankyrase inhibitory activity test (ELISA, self-polyADP ribosylation), tankyrase 1; assay type: biochemical; conditions: tankyrase 1, ELISA, self-polyADP ribosylation; read-out: TNKS1 inhibitory activity (IC50 class)
T1 construct: 1,024-1,327aa; made in house; host or cells: cell-free protein synthesis system
Method: (§1) (Test Example 1) Tankyrase Inhibitory Activity Test
(§2) For each of the compounds obtained in Examples (the test target compounds), the tankyrase inhibitory activity (an inhibitory activity against tankyrase 1 (TNKS 1) and an inhibitory activity against tankyrase 2 (TNKS 2)) was evaluated by measuring the enzymatic activity of tankyrase 1 and the enzymatic activity of tankyrase 2 by the ELISA technique using self-polyADP ribosylation as an index. First, Flag-tag fusion tankyrase 1 (1,024-1,327aa, SAM+PARP) and tankyrase 2 (613-1, 116aa, ANK5+SAM+PARP) were each synthesized by a cell-free protein synthesis system and diluted with a Tris buffer (50 mM Tris-HCl (pH 8.0), 150 mM NaCl, 10% glycerol). Then, 50 μL of the diluted tankyrase 1 or tankyrase 2 was added to a plate on which the anti-FLAGM 2 monoclonal antibody was immobilized (Anti-FLAG high sensitivity M2 coated plate) (SIGMA Corporation), and was allowed to stand at 4° C. overnight. Thereafter, the plate was washed four times with a PBS buffer containing 0.1% Triton X-100 (PBST buffer).
(§3) Subsequently, the test target compound diluted with an assay buffer (50 mM Tris-HCl (pH 8.0), 4 mM MgCl2, 0.2 mM DTT) (using DMSO as a control) was added to each well of the plate and was allowed to stand at room temperature for 10 minutes. Thereafter, a biotin-labeled NAD solution (225 μM NAD, 25 μM 6-Biotin-17-NAD (Trevigen Inc.)) was added as a donor substrate and mixed with the resultant test target compound, and the reaction was allowed to proceed at 30° C. for 45 minutes. Instead of the biotin-labeled NAD solution, distilled water was added to blank wells. After the reaction, the plate was washed four times with the PBST buffer. Thereafter, HRP (horseradish peroxidase)-labeled streptavidin (Trevigen Inc.) diluted 1,000-fold with the PBS buffer was added to each well, and the reaction was allowed to proceed at room temperature for 20 minutes. After the plate was washed four times with the PBST buffer, a chemiluminescent substrate solution TACS-Sapphire (Trevigen Inc.) was added to each well and the reaction was allowed to proceed at room temperature for 20 minutes. Then, the chemiluminescence intensity was measured using a chemiluminescence measuring apparatus.
(§4) The residual enzyme activity in the presence of the test target compound was determined in accordance with the following formula. Based on the residual enzyme activity at multiple concentrations of the test target compound, an enzyme inhibition activity was calculated as a 50% inhibitory concentration (IC50 value) using data analysis software named Origin (LightStone Corp.).

tankyrase 2 (TNKS 2) = biological target: T2, tankyrase 2 (TNKS 2) (Homo sapiens, UniProt Q9H2K2); assay: Tankyrase inhibitory activity test (ELISA, self-polyADP ribosylation), tankyrase 2; assay type: biochemical; conditions: tankyrase 2, ELISA, self-polyADP ribosylation; read-out: TNKS2 inhibitory activity (IC50 class)
T2 construct: 613-1, 116aa; made in house; host or cells: cell-free protein synthesis system
Method: as §1, §2, §3, §4

[1] = system: human colorectal cancer cell line, COLO-320DM; assay: Cell proliferation inhibitory activity test (Celltiter-Glo Luminescent Cell Viability Assay); assay type: cell-based; conditions: COLO-320DM cells, 96 hours, read-out: COLO-320 DM cell proliferation inhibitory activity (GI50 class)
Method: (Test Example 2) Cell Proliferation Inhibitory Activity Test
The cell proliferation inhibitory activity of the compound obtained in each of Examples against human colorectal cancer cell line, COLO-320DM was evaluated by Celltiter-Glo Luminescent Cell Viability Assay (Promega Corporation, G7573). The COLO-320 DM cells were cultured in a RPMI-1640 medium (Wako Pure Chemical Industries, Ltd., 189-02025) containing 10% fetal bovine serum and 2 mM of glutamine. The cultured cells were washed with PBS and then detached with trypsin/EDTA to prepare a cell solution containing 3×10^4 cells/mL.
Next, the cell solution was seeded in a 96 well microplate (Thermo/Nunc, 136101) in an amount of 70 μL/well and was cultured overnight under conditions at 37° C. with 5% CO2. On the next day, 10 μL/well of a solution in which the test target compound (DMSO solution) was diluted with the cell culture medium (a final DMSO concentration of 1%) was added and the reaction was allowed to proceed under conditions at 37° C. with 5% CO2 for 96 hours (a 1% DMSO solution was used as a control). Subsequently, 80 μL/well of Celltiter-Glo Luminescent Cell Viability Assay reagent (Promega Corporation, G7573) was added, followed by agitation for 2 minutes with a shaker under shielding with aluminum foil. Thereafter, the resultant solution was allowed to stand for reaction at room temperature for 10 minutes.
After that, the luminescent signal was measured with a luminometer (Biotech, Synergy). The cell proliferation inhibitory activity was evaluated by obtaining a percentage of a cell proliferation volume of each compound-added group with respect to a cell proliferation volume (100%) of a control group in which no test target component solution was added, and calculating a value of compound concentration (GI50) required to reduce the remaining cell volume to 50% of the remaining cell volume of the control. […] The results are shown in Tables 120 to 123 together with the results of the tankyrase inhibition activity test.

T2 sequence (Q9H2K2 613-1166): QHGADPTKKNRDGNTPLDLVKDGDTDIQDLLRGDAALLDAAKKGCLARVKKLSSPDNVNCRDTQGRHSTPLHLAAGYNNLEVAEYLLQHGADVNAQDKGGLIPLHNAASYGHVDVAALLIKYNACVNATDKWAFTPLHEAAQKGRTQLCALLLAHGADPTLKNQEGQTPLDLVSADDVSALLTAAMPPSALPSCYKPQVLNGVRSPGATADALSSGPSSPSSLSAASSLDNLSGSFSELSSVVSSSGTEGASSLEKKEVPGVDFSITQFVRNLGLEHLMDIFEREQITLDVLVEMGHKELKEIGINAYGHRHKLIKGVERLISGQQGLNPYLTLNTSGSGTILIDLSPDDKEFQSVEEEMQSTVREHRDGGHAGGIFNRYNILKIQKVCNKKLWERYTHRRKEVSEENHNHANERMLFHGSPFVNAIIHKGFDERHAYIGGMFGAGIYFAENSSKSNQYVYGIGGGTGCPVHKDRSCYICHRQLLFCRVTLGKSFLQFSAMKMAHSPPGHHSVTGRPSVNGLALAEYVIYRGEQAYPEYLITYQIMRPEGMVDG
T1 sequence (O95271 1024-1327): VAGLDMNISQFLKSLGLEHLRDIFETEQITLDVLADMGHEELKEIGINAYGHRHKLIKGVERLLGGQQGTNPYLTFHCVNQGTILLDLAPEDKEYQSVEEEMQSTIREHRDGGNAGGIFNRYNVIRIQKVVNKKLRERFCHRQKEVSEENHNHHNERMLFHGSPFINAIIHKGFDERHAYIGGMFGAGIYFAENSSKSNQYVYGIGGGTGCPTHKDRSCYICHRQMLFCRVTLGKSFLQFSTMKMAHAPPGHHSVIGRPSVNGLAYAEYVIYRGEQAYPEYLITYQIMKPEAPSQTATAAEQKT

SMILES | IC50 (tankyrase 1 (TNKS 1)) [µM] | IC50 (tankyrase 2 (TNKS 2)) [µM] | GI50 [1] [µM]
CN1CCCc2c1nc(N1CCC3(CC1)CN(CCO)c1cc(F)cc(F)c13)[nH]c2=O [Example 338, 2-[4,6-difluoro-1-(2-hydroxyethyl)spiro [indoline-3,4′-piperidin]-1′-yl]-8-methyl-5,6,7,8-tetrahydro-pyrido [2,3-d] pyrimidin-4(3H)-one] | 0.02 to 0.2 | < 0.02 | 0.1 to 0.6
CN1CCCc2c1nc(N1CCC3(CC1)C(=O)N(C)c1cc(F)cc(F)c13)[nH]c2=O [Example 339, 4,6-difluoro-1-methyl-1′-(8-methyl-4-oxo-3,4,5,6,7,8-hexahydro-pyrido[2,3-d]pyrimidin-2-yl)spiro [indoline-3,4′-piperidin]-2-one] | < 0.02 | < 0.02 | 0.1 to 0.6
CN1CCCc2c1nc(N1CCC3(CC1)C(=O)N(CCO)c1cc(F)cc(F)c13)[nH]c2=O [Example 340, 4,6-difluoro-1-(2-hydroxyethyl)-1′-(8-methyl-4-oxo-3,4,5,6,7,8-hexahydro-pyrido[2,3-d]pyrimidin-2-yl)spiro [indoline-3,4′-piperidin]-2-one] | < 0.02 | < 0.02 | 0.1 to 0.6
O=c1[nH]c(N2CCC3(CC2)CN(Cc2ccccc2F)c2cc(F)cc(F)c23)nc2c1CCCC2 [Example 341, 2-[4,6-difluoro-1-(2-fluorobenzyl)spiro [indoline-3,4′-piperidin]-1′-yl]-5,6,7,8-tetrahy-droquinazolin-4(3H)-one] | 0.02 to 0.2 | 0.02 to 0.2 | 0.6 to 1
O=c1[nH]c(N2CCC3(CC2)CN(Cc2cccc(F)c2)c2cc(F)cc(F)c23)nc2c1CCCC2 [Example 342, 2-[4,6-difluoro-1-(3-fluorobenzyl)spiro [indoline-3,4′-piperidin]-1′-yl]-5,6,7,8-tetrahy-droquinazolin-4(3H)-one] | 0.02 to 0.2 | < 0.02 | 0.6 to 1
O=c1[nH]c(N2CCC3(CC2)CN(Cc2ccc(Cl)nc2)c2cc(F)cc(F)c23)nc2c1CCCC2 [Example 344, 2-{1-[(6-chloropyridin-3-yl)methyl]-4,6-di-fluorospiro[indoline-3,4′-piperidin]-1′-yl]-5,6,7,8-tetrahydroquin-azolin-4(3H)-one] | < 0.02 | < 0.02 | 0.1 to 0.6
Cn1ccc2c(=O)[nH]c(N3CCC4(CC3)CN(Cc3cccnc3)c3cc(F)cc(F)c34)nc21 [Example 347, 2-[4,6-difluoro-1-(pyridin-3-ylmethyl)spiro [indoline-3,4′-piperidine]-1′-yl]-7-methyl-3,7-dihydro-4H-pyrrolo [2,3-d]pyrimidin-4-one] | 0.02 to 0.2 | 0.02 to 0.2 | 0.6 to 1
CN1CCCc2c1nc(N1CCC3(CC1)CN(Cc1cccnc1)c1cc(F)cc(F)c13)[nH]c2=O [Example 351, 2-[4,6-difluoro-1-(pyridin-3-ylmethyl)spiro [indoline-3,4′-piperi-dine]-1′-yl]-8-methyl-5,6,7,8-tetrahydro pyrido [2,3-d]pyrimidin-4(3H)-one] | 0.02 to 0.2 | < 0.02 | 0.1 to 0.6
CN1CCCc2c1nc(N1CCC3(CC1)C(=O)N(C)c1cc(O)cc(F)c13)[nH]c2=O [Example 354, 4-fluoro-6-hydroxy-1-methyl-1′-(8-methyl-4-oxo-3,4,5,6,7,8-hexahydropyrido [2,3-d]pyrimidin-2-yl) spiro[indoline-3,4′-piperidin]-2-one] | < 0.02 | < 0.02 | 0.1 to 0.6

Continued, values first:

IC50 (tankyrase 1 (TNKS 1)) [µM] | IC50 (tankyrase 2 (TNKS 2)) [µM] | GI50 [1] [µM] | SMILES
< 0.02 | < 0.02 | 0.1 to 0.6 | CN1CCCc2c1nc(N1CCC3(CC1)C(=O)N(C)c1cc(OCCO)cc(F)c13)[nH]c2=O [Example 356, 4-fluoro-6-(2-hydroxy-ethoxy)-1-methyl-1′-(8-methyl-4-oxo-3,4,5,6,7,8-hexahydro-pyrido[2,3-d]pyrimidin-2-yl) spiro [indoline-3,4′-piperidin]-2-one]
< 0.02 | < 0.02 | 0.6 to 1 | CN(C)CCOc1cc(F)c2c(c1)N(C)C(=O)C21CCN(c2nc3c(c(=O)[nH]2)CCCN3C)CC1 [Example 357, 6-[2-(dimethylamino)ethoxy]-4-fluoro-1-methyl-1′-(8-methyl-4-oxo-3,4,5,6,7,8-hexa-hydropyrido [2,3-d]pyrimidin-2-yl) spiro[indoline-3,4′-piperidin]-2-one]
< 0.02 | < 0.02 | 0.1 to 0.6 | CN1CCCc2c1nc(N1CCC3(CC1)C(=O)N(C)c1cc(OCCN4CCOCC4)cc(F)c13)[nH]c2=O [Example 360, 4-fluoro-1-methyl-1′-(8-methyl-4-oxo-3,4,5,6,7,8-hexahydropy-rido[2,3-d]pyrimidin-2-yl)-6-(2-morpho-linoethoxy) spiro [indoline-3,4′-piperidin]-2-one]
< 0.02 | < 0.02 | 0.6 to 1 | CN1CCCc2c1nc(N1CCC3(CC1)C(=O)N(C)c1cc(OCCN4CCS(=O)(=O)CC4)cc(F)c13)[nH]c2=O [Example 361, 6-[2-(1,1-dioxidothio-morpholino)ethoxy]-4-fluoro-1-methyl-1′-(8-methyl-4-oxo-3,4,5,6,7,8-hexahydropy-rido[2,3-d]pyrimidin-2-yl)spiro [indoline-3,4′-piperidin]-2-one]
< 0.02 | < 0.02 | 0.1 to 0.6 | CN1CCN(CCOc2cc(F)c3c(c2)N(C)C(=O)C32CCN(c3nc4c(c(=O)[nH]3)CCCN4C)CC2)CC1 [Example 362, 4-fluoro-1-methyl-1′-(8-methyl-4-oxo-3,4,5,6,7,8-hexahydropy-rido[2,3-d]pyrimidin-2-yl)-6-[2-(4-methyl-piperazin-1-yl)ethoxy] spiro[indoline-3,4′-piperidin]-2-one]
< 0.02 | < 0.02 | 0.6 to 1 | CN1CCCc2c1nc(N1CCC3(CC1)C(=O)N(C)c1cc(OCCCN4CCOCC4)cc(F)c13)[nH]c2=O [Example 365, 4-fluoro-1-methyl-1′-(8-methyl-4-oxo-3,4,5,6,7,8-hexahydro-pyrido[2,3-d]pyrimidin-2-yl)-6-(3-morpholino-propoxy) spiro[indoline-3,4′-piperidin]-2-one]
< 0.02 | < 0.02 | 0.1 to 0.6 | COCCOc1cc(F)c2c(c1)N(C)C(=O)C21CCN(c2nc3c(c(=O)[nH]2)CCCN3C)CC1 [Example 366, 4-fluoro-6-(2-methoxy)-1-methyl-1′-(8-methyl-4-oxo-3,4,5,6,7,8-hexahydropy-rido[2,3-d]pyrimidin-2-yl)spiro [indoline-3,4′-piperidin]-2-one]
< 0.02 | < 0.02 | 0.1 to 0.6 | CN1CCCc2c1nc(N1CCC3(CC1)C(=O)N(C)c1cc(OCCCN4CCCC4)cc(F)c13)[nH]c2=O [Example 367, 4-fluoro-1-methyl-1′-(8-methyl-4-oxo-3,4,5,6,7,8-hexahydropy-rido[2,3-d]pyrimidin-2-yl)-6-[3-(pyrrolidin-1-yl)propoxy] spiro[indoline-3,4′-piperidin]-2-one]
